Results published in the NIST ThermoML archive (doi:10.1021/acs.jced.8b01004).

Assay: xn = mol fraction of the nth substance listed
Settings: 100 kPa, Liquid; for viscosity: Falling or rolling sphere viscometry; for mass density: Vibrating tube method

OC1CCCC1 [cyclopentanol] + CC1CCCCC1
Settings | mass density [kg/m3] | viscosity [mPa·s]
293.15 K, x2 = 0 | 946.99 | 11.88
293.15 K, x2 = 0.0995 | 924.17 | 7.639
293.15 K, x2 = 0.2005 | 902.36 | 4.929
293.15 K, x2 = 0.2971 | 882.38 | 3.505
293.15 K, x2 = 0.4001 | 862.34 | 2.41
293.15 K, x2 = 0.5014 | 843.89 | 1.793
293.15 K, x2 = 0.5994 | 827.06 | 1.396
293.15 K, x2 = 0.6828 | 813.6 | 1.166
293.15 K, x2 = 0.7949 | 796.76 | 0.96
293.15 K, x2 = 0.8975 | 782.42 | 0.826
298.15 K, x2 = 0 | 943.05 | 9.722
298.15 K, x2 = 0.0995 | 920.12 | 6.316
298.15 K, x2 = 0.2005 | 898.22 | 4.183
298.15 K, x2 = 0.2971 | 878.17 | 3.03
298.15 K, x2 = 0.4001 | 858.07 | 2.123
298.15 K, x2 = 0.5014 | 839.58 | 1.602
298.15 K, x2 = 0.5994 | 822.73 | 1.268
298.15 K, x2 = 0.6828 | 809.25 | 1.071
298.15 K, x2 = 0.7949 | 792.38 | 0.89
298.15 K, x2 = 0.8975 | 778.04 | 0.772
303.15 K, x2 = 0 | 939.05 | 8.068
303.15 K, x2 = 0.0995 | 916.02 | 5.48
303.15 K, x2 = 0.2005 | 894.03 | 3.587
303.15 K, x2 = 0.2971 | 873.91 | 2.644
303.15 K, x2 = 0.4001 | 853.76 | 1.885
303.15 K, x2 = 0.5014 | 835.24 | 1.445
303.15 K, x2 = 0.5994 | 818.37 | 1.16
303.15 K, x2 = 0.6828 | 804.87 | 0.989
303.15 K, x2 = 0.7949 | 787.97 | 0.827
303.15 K, x2 = 0.8975 | 773.63 | 0.722
308.15 K, x2 = 0 | 935 | 7.077
308.15 K, x2 = 0.0995 | 911.87 | 4.66
308.15 K, x2 = 0.2005 | 889.79 | 3.099
308.15 K, x2 = 0.2971 | 869.61 | 2.324
308.15 K, x2 = 0.4001 | 849.41 | 1.685
308.15 K, x2 = 0.5014 | 830.86 | 1.312
308.15 K, x2 = 0.5994 | 813.97 | 1.065
308.15 K, x2 = 0.6828 | 800.45 | 0.916
308.15 K, x2 = 0.7949 | 783.54 | 0.771
308.15 K, x2 = 0.8975 | 769.19 | 0.677
313.15 K, x2 = 0 | 930.91 | 6.04
313.15 K, x2 = 0.0995 | 907.67 | 4.046
313.15 K, x2 = 0.2005 | 885.51 | 2.695
313.15 K, x2 = 0.2971 | 865.27 | 2.055
313.15 K, x2 = 0.4001 | 845.02 | 1.514
313.15 K, x2 = 0.5014 | 826.44 | 1.196
313.15 K, x2 = 0.5994 | 809.53 | 0.982
313.15 K, x2 = 0.6828 | 796 | 0.851
313.15 K, x2 = 0.7949 | 779.07 | 0.721
313.15 K, x2 = 0.8975 | 764.73 | 0.636
318.15 K, x2 = 0 | 926.75 | 5.19
318.15 K, x2 = 0.0995 | 903.41 | 3.487
318.15 K, x2 = 0.2005 | 881.17 | 2.361
318.15 K, x2 = 0.2971 | 860.88 | 1.828
318.15 K, x2 = 0.4001 | 840.59 | 1.368
318.15 K, x2 = 0.5014 | 821.99 | 1.093
318.15 K, x2 = 0.5994 | 805.06 | 0.907
318.15 K, x2 = 0.6828 | 791.51 | 0.793
318.15 K, x2 = 0.7949 | 774.57 | 0.677
318.15 K, x2 = 0.8975 | 760.23 | 0.6
323.15 K, x2 = 0 | 922.53 | 4.441
323.15 K, x2 = 0.0995 | 899.09 | 3.037
323.15 K, x2 = 0.2005 | 876.78 | 2.081
323.15 K, x2 = 0.2971 | 856.11 | 1.635
323.15 K, x2 = 0.4001 | 836.11 | 1.241
323.15 K, x2 = 0.5014 | 817.49 | 1.004
323.15 K, x2 = 0.5994 | 800.54 | 0.842
323.15 K, x2 = 0.6828 | 786.98 | 0.74
323.15 K, x2 = 0.7949 | 770.03 | 0.636
323.15 K, x2 = 0.8975 | 755.7 | 0.566
328.15 K, x2 = 0 | 918.24 | 3.83
328.15 K, x2 = 0.0995 | 894.72 | 2.674
328.15 K, x2 = 0.2005 | 872.33 | 1.843
328.15 K, x2 = 0.2971 | 851.95 | 1.472
328.15 K, x2 = 0.4001 | 831.58 | 1.13
328.15 K, x2 = 0.5014 | 812.94 | 0.924
328.15 K, x2 = 0.5994 | 795.97 | 0.782
328.15 K, x2 = 0.6828 | 782.41 | 0.692
328.15 K, x2 = 0.7949 | 765.45 | 0.599
328.15 K, x2 = 0.8975 | 751.14 | 0.537
333.15 K, x2 = 0 | 913.89 | 3.312
333.15 K, x2 = 0.0995 | 890.28 | 2.366
333.15 K, x2 = 0.2005 | 867.83 | 1.642
333.15 K, x2 = 0.2971 | 847.4 | 1.329
333.15 K, x2 = 0.4001 | 827 | 1.033
333.15 K, x2 = 0.5014 | 808.34 | 0.853
333.15 K, x2 = 0.5994 | 791.36 | 0.731
333.15 K, x2 = 0.6828 | 777.79 | 0.65
333.15 K, x2 = 0.7949 | 760.84 | 0.566
333.15 K, x2 = 0.8975 | 746.55 | 0.51
338.15 K, x2 = 0 | 909.48 | 2.886
338.15 K, x2 = 0.0995 | 885.78 | 2.109
338.15 K, x2 = 0.2005 | 863.28 | 1.471
338.15 K, x2 = 0.2971 | 842.8 | 1.205
338.15 K, x2 = 0.4001 | 822.37 | 0.948
338.15 K, x2 = 0.5014 | 803.69 | 0.79
338.15 K, x2 = 0.5994 | 786.71 | 0.683
338.15 K, x2 = 0.6828 | 773.13 | 0.611
338.15 K, x2 = 0.7949 | 756.2 | 0.536
338.15 K, x2 = 0.8975 | 741.93 | 0.486
343.15 K, x2 = 0 | 904.99 | 2.53
343.15 K, x2 = 0.0995 | 881.21 | 1.879
343.15 K, x2 = 0.2005 | 858.67 | 1.326
343.15 K, x2 = 0.2971 | 838.13 | 1.108
343.15 K, x2 = 0.4001 | 817.69 | 0.873
343.15 K, x2 = 0.5014 | 799 | 0.734
343.15 K, x2 = 0.5994 | 782.01 | 0.641
343.15 K, x2 = 0.6828 | 768.43 | 0.577
343.15 K, x2 = 0.7949 | 751.51 | 0.517
343.15 K, x2 = 0.8975 | 737.27 | 0.464
